Blank lines part the entries; values can stand above or below the compound they belong to.
What was measured:
[1] = target: human adenosine A2A receptor (Homo sapiens (Human), UniProt P29274); test: Adenosine receptor inhibition binding assay, [3H]ZM241385, HEK293 A2A receptor membranes; conditions: 1 nM [3H]ZM241385, HEK293-hA2A membranes, 25° C., 1 h, Ki from IC50 by Cheng-Prusoff; for Ki: read-out: A2A pKi (converted)
Protocol: (§1) Inhibition binding assays were performed using 0.2 µg of membranes prepared from HEK293 cells infected with BacMam human adenosine A2A receptor or 1.4 µg of membranes prepared from HEK293 cells infected with BacMam human adenosine A1 receptor. Membranes were incubated in 50 mM Tris-HCl (HEK293-hA2A; pH 7.4) or 50 mM Tris-HCl, 100 mM NaCl, 10 mM MgCl2 (CHO-hA1; pH 7.4) in the presence of varying concentrations of test compound and 1 nM [^3H]ZM241385 (HEK293-hA2A) or [^3H]DPCPX (CHO-hA1) at 25° C. for 1 h. The assay was then terminated by rapid filtration onto GF/B grade Unifilter plates using a TomTec cell harvester, followed by 5 × 0.5 ml washes with ddH2O. Nonspecific binding was defined in the presence of 1 µM CGS 15943 (HEK293-hA2A) or 1 µM DPCPX (CHO-hA1). Bound radioactivity was determined by liquid scintillation counting and inhibition curves were analysed using a four-parameter logistic equation. IC50 values were converted to Ki values with the Cheng-Prusoff equation using a KD value derived from saturation binding studies.

[2] = target: human adenosine A1 receptor (Homo sapiens (Human), UniProt P30542); test: Adenosine receptor inhibition binding assay, [3H]DPCPX, A1 receptor membranes; conditions: 1 nM [3H]DPCPX, 25° C., 1 h, Ki from IC50 by Cheng-Prusoff; for Ki: read-out: A1 pKi (converted)
human adenosine A1 receptor, sequence (P30542 whole entry): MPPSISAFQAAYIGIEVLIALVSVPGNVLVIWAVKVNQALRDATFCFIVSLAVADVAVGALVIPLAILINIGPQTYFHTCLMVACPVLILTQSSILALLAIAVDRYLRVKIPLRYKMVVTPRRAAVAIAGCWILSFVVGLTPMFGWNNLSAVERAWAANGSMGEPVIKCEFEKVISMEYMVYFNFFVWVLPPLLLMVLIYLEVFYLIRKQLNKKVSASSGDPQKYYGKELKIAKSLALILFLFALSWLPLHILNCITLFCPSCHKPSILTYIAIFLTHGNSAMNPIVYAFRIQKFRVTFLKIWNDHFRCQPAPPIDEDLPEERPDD
Protocol: as §1

human adenosine A2A receptor, sequence (P29274 whole entry): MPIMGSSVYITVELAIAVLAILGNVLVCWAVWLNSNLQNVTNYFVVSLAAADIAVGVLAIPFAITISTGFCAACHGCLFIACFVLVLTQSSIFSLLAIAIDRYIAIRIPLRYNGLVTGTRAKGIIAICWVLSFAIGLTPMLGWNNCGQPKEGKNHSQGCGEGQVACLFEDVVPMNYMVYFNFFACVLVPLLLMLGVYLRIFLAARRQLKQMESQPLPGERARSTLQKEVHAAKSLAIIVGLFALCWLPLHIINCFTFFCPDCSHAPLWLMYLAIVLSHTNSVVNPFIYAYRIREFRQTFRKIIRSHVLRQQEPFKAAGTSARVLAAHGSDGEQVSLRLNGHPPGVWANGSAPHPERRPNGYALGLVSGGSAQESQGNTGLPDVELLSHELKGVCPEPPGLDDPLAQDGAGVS

A2A pKi [1]: 6.9
A1 pKi [2]: 5.6
Compound: Cc1cc(-c2c(-c3ccccc3)nc(N)n3c(=O)n(CCNC4CCN(C(=O)c5cccnc5)C4)nc23)cc(C)n1 (centres unmarked) [Example 3-2, 5-amino-8-(2,6-dimethyl-4-pyridyl)-7-phenyl-2-[2-[[1-(pyridine-3-carbonyl)pyrrolidin-3-yl]amino]ethyl]-[1,2,4]triazolo[4,3-c]pyrimidin-3-one]

A2A pKi [1]: 9.2
A1 pKi [2]: 6.7
Compound: Cc1cc(-c2c(-c3ccccc3)nc(N)n3c(=O)n(C[C@H]4CCCO4)nc23)cc(C)n1 [Example 2-16, 5-amino-8-(2,6-dimethyl-4-pyridyl)-7-phenyl-2-[[(2R)-tetrahydrofuran-2-yl]methyl]-[1,2,4]triazolo[4,3-c]pyrimidin-3-one]

A2A pKi [1]: 8.7
A1 pKi [2]: 6.0
Compound: Cc1cc(-c2c(-c3ccccc3)nc(N)n3c(=O)n(C[C@@H]4CC(F)(F)CN4)nc23)cc(C)n1 [Example 2-11, 5-amino-2-[[(2S)-4,4-difluoropyrrolidin-2-yl]methyl]-8-(2,6-dimethyl-4-pyridyl)-7-phenyl-[1,2,4]triazolo[4,3-c]pyrimidin-3-one]

A2A pKi [1]: 8.9
A1 pKi [2]: <6.0
Compound: Cc1cc(-c2c(N3CCCCC3)nc(N)n3c(=O)n(Cc4ncoc4C)nc23)cc(C)n1 [Example 4-1, 5-amino-8-(2,6-dimethyl-4-pyridyl)-2-[(5-methyloxazol-4-yl)methyl]-7-(1-piperidyl)-[1,2,4]triazolo[4,3-c]pyrimidin-3-one]

Ki [1]: 0.316 nM
Ki [2]: 158 nM
Compound: [2H]c1c([2H])c([2H])c(-c2nc(N)n3c(=O)n(C[C@H]4CCCO4)nc3c2-c2cc(Cl)nc(CO)c2)c([2H])c1[2H] [Example 2-33, 5-amino-8-[2-chloro-6-(hydroxymethyl)-4-pyridyl]-7-(2,3,4,5,6-pentadeuteriophenyl)-2-[[(2R)-tetrahydrofuran-2-yl]methyl]-[1,2,4]triazolo[4,3-c]pyrimidin-3-one]

A2A pKi [1]: 7.7
A1 pKi [2]: 6.8
Compound: Cc1cc(-c2c(-c3ccccc3)nc(N)n3c(=O)n(C4CCN(C(=O)OC(C)(C)C)C4)nc23)cc(C)n1 (centres unmarked) [Example 2-1, tert-butyl 3-[5-amino-8-(2,6-dimethyl-4-pyridyl)-3-oxo-7-phenyl-[1,2,4]triazolo[4,3-c]pyrimidin-2-yl]pyrrolidine-1-carboxylate]

A2A pKi [1]: 8.4
A1 pKi [2]: 6.4
Compound: Cc1cc(-c2c(-c3ccccc3)nc(N)n3c(=O)n(C[C@@H]4C[C@@H](F)CN4)nc23)cc(C)n1 [Example 2-21, 5-amino-8-(2,6-dimethyl-4-pyridyl)-2-[[(2S,4R)-4-fluoropyrrolidin-2-yl]methyl]-7-phenyl-[1,2,4]triazolo[4,3-c]pyrimidin-3-one]

A2A pKi [1]: 8.2
A1 pKi [2]: 5.9
Compound: Cc1cc(-c2c(-c3ccccc3)nc(N)n3c(=O)n(C[C@@H]4C[C@H](O)CN4)nc23)cc(C)n1 [Example 2-22, 5-amino-8-(2,6-dimethyl-4-pyridyl)-2-[[(2S,4S)-4-hydroxypyrrolidin-2-yl]methyl]-7-phenyl-[1,2,4]triazolo[4,3-c]pyrimidin-3-one]

The next lines start with the compound.

Compound: Cc1cc(-c2c(-c3ccccc3)nc(N)n3c(=O)n(Cc4c(C)ncn4C)nc23)cc(CO)n1 [Example 1-44, 5-amino-2-[(3,5-dimethylimidazol-4-yl)methyl]-8-[2-(hydroxymethyl)-6-methyl-4-pyridyl]-7-phenyl-[1,2,4]triazolo[4,3-c]pyrimidin-3-one]
A2A pKi [1]: 8.4
A1 pKi [2]: 6.8

Compound: [2H]c1c([2H])c([2H])c(-c2nc(N)n3c(=O)n(Cc4nccn4C)nc3c2-c2cc(CO)nc(OC)c2)c([2H])c1[2H] [Example 1-62, 5-amino-8-[2-(hydroxymethyl)-6-methoxy-4-pyridyl]-2-[(1-methylimidazol-2-yl)methyl]-7-(2,3,4,5,6-pentadeuteriophenyl)-[1,2,4]triazolo[4,3-c]pyrimidin-3-one]
Ki [1]: 0.251 nM
Ki [2]: 126 nM

Compound: Cc1cc(-c2c(-c3ccccc3)nc(N)n3c(=O)n(Cc4ccn[nH]4)nc23)cc(C)n1 [Example 1-25, 5-amino-8-(2,6-dimethyl-4-pyridyl)-7-phenyl-2-(1H-pyrazol-5-ylmethyl)-[1,2,4]triazolo[4,3-c]pyrimidin-3-one]
A2A pKi [1]: 8.6
A1 pKi [2]: 7.1

Compound: Cc1cc(-c2c(-c3ccccc3)nc(N)n3c(=O)n(Cc4cocn4)nc23)cc(CO)n1 [Example 1-42, 5-amino-8-[2-(hydroxymethyl)-6-methyl-4-pyridyl]-2-(oxazol-4-ylmethyl)-7-phenyl-[1,2,4]triazolo[4,3-c]pyrimidin-3-one]
A2A pKi [1]: 8.5
A1 pKi [2]: 6.7

Compound: Cc1cc(-c2c(-c3ccc(F)cc3)nc(N)n3c(=O)n(Cc4nc(C)oc4C)nc23)cc(C)n1 [Example 1-32, 5-amino-2-[(2,5-dimethyloxazol-4-yl)methyl]-8-(2,6-dimethyl-4-pyridyl)-7-(4-fluorophenyl)-[1,2,4]triazolo[4,3-c]pyrimidin-3-one]
A2A pKi [1]: 9.5
A1 pKi [2]: 7.0

Compound: [2H]c1c([2H])c([2H])c(-c2nc(N)n3c(=O)n(Cc4nccn4C)nc3c2-c2cc(C)nc(CO)c2)c([2H])c1[2H] [Example 1-48, 5-amino-8-[2-(hydroxymethyl)-6-methyl-4-pyridyl]-2-[(1-methylimidazol-2-yl)methyl]-7-(2,3,4,5,6-pentadeuteriophenyl)-[1,2,4]triazolo[4,3-c]pyrimidin-3-one]
Ki [1]: 1.26 nM
Ki [2]: 158 nM

Compound: Cc1cc(-c2c(-c3ccccc3)nc(N)n3c(=O)n(Cc4nn[nH]c4C)nc23)cc(C)n1 [Example 1-29, 5-amino-8-(2,6-dimethylpyridin-4-yl)-2-((5-methyl-1H-1,2,3-triazol-4-yl)methyl)-7-phenyl-[1,2,4]triazolo[4,3-c]pyrimidin-3(2H)-one]
A2A pKi [1]: 8.6
A1 pKi [2]: 7.0

Compound: Cc1cc(-c2c(-c3ccccc3)nc(N)n3c(=O)n(Cc4ncco4)nc23)cc(CO)n1 [Example 1-40, 5-amino-8-[2-(hydroxymethyl)-6-methyl-4-pyridyl]-2-(oxazol-2-ylmethyl)-7-phenyl-[1,2,4]triazolo[4,3-c]pyrimidin-3-one]
A2A pKi [1]: 8.8
A1 pKi [2]: 6.9

Compound: Cc1cc(-c2c(-c3ccccc3)nc(N)n3c(=O)n(Cc4nnco4)nc23)cc(C)n1 [Example 1-27, 5-amino-8-(2,6-dimethyl-4-pyridyl)-2-(1,3,4-oxadiazol-2-ylmethyl)-7-phenyl-[1,2,4]triazolo[4,3-c]pyrimidin-3-one]
A2A pKi [1]: 8.1
A1 pKi [2]: 6.6

Compound: Cc1cc(-c2c(-c3ccccc3)nc(N)n3c(=O)n(Cc4noc(C)n4)nc23)cc(C)n1 [Example 1-20, 5-amino-8-(2,6-dimethyl-4-pyridyl)-2-[(5-methyl-1,2,4-oxadiazol-3-yl)methyl]-7-phenyl-[1,2,4]triazolo[4,3-c]pyrimidin-3-one]
A2A pKi [1]: 8.7
A1 pKi [2]: 6.6

Compound: Cc1cc(-c2c(-c3ccccc3)nc(N)n3c(=O)n(Cc4ccn(C)n4)nc23)cc(CO)n1 [Example 1-45, 5-amino-8-[2-(hydroxymethyl)-6-methyl-4-pyridyl]-2-[(1-methylpyrazol-3-yl)methyl]-7-phenyl-[1,2,4]triazolo[4,3-c]pyrimidin-3-one]
A2A pKi [1]: 9.3
A1 pKi [2]: 7.2

Compound: [2H]c1c([2H])c([2H])c(-c2nc(N)n3c(=O)n(Cc4cocn4)nc3c2-c2cc(C)nc(CO)c2)c([2H])c1[2H] [Example 1-49, 5-amino-8-[2-(hydroxymethyl)-6-methyl-4-pyridyl]-2-(oxazol-4-ylmethyl)-7-(2,3,4,5,6-pentadeuteriophenyl)-[1,2,4]triazolo[4,3-c]pyrimidin-3-one]
Ki [1]: 1.58 nM
Ki [2]: 316 nM

Compound: Cc1cc(-c2c(-c3ccccc3)nc(N)n3c(=O)n(CCc4ncc[nH]4)nc23)cc(C)n1 [Example 1-3, 5-amino-8-(2,6-dimethyl-4-pyridyl)-2-[2-(1H-imidazol-2-yl)ethyl]-7-phenyl-[1,2,4]triazolo[4,3-c]pyrimidin-3-one]
A2A pKi [1]: 7.9
A1 pKi [2]: 5.9

Compound: Cc1cc(-c2c(-c3ccccc3)nc(N)n3c(=O)n(Cc4nccn4C)nc23)cc(CO)n1 [Example 1-41, 5-amino-8-[2-(hydroxymethyl)-6-methyl-4-pyridyl]-2-[(1-methylimidazol-2-yl)methyl]-7-phenyl-[1,2,4]triazolo[4,3-c]pyrimidin-3-one]
A2A pKi [1]: 9.1
A1 pKi [2]: 7.2
